# Results taken from ChEMBL document CHEMBL5143587, “Antitumor Effect of Manool in a Murine Melanoma Model” (J Nat Prod, 2022).
# Calls of active or inactive are those of the source. No cut-off for these calls is given here.
# How the values were obtained:
# [1] = Genotoxicity in C57BL/6 mouse xenografted with mouse B16-F10 cells assessed as micronucleated polychromatic erythrocytes frequency in bone marrow cells at 20 mg/kg, po for consecutive 5 days (reference value: 6.00 +/-1.00); type: toxicity, organism-based; conditions: in vivo, 120 h, time 5 day
# [2] = Toxicity in C57BL/6 mouse xenografted with mouse B16-F10 cells assessed as change in heart weight at 20 to 40 mg/kg, ip administered once daily for consecutive 5 days relative to control; type: organism-based; conditions: in vivo, 120 h, dose 20-40 mg/kg, time 5 day
# [3] = Toxicity in C57BL/6 mouse xenografted with mouse B16-F10 cells assessed as change in body weight at 20 to 40 mg/kg, po administered once daily for consecutive 5 days; type: organism-based; conditions: in vivo, 120 h, dose 20-40 mg/kg, time 5 day
# [4] = Toxicity in C57BL/6 mouse xenografted with mouse B16-F10 cells assessed as change in kidney weight at 20 to 40 mg/kg, sc administered once daily for consecutive 5 days relative to control; type: organism-based; conditions: in vivo, 120 h, dose 20-40 mg/kg, time 5 day
# [5] = Toxicity in C57BL/6 mouse xenografted with mouse B16-F10 cells assessed as splenomegaly at 40 mg/kg, ip administered once daily for consecutive 5 days; type: organism-based; conditions: in vivo, 120 h, time 5 day
# [6] = Toxicity in C57BL/6 mouse xenografted with mouse B16-F10 cells assessed as change in body weight at 20 to 40 mg/kg, sc administered once daily for consecutive 5 days; type: organism-based; conditions: in vivo, 120 h, dose 20-40 mg/kg, time 5 day
# [7] = Genotoxicity in C57BL/6 mouse xenografted with mouse B16-F10 cells assessed as micronucleated polychromatic erythrocytes frequency in bone marrow cells at 40 mg/kg, ip for consecutive 5 days (reference value: 8.00); type: toxicity, organism-based; conditions: in vivo, 120 h, time 5 day
# [8] = Toxicity in C57BL/6 mouse xenografted with mouse B16-F10 cells assessed as reduction in spleen weight at 20 mg/kg, po administered once daily for consecutive 5 days; type: organism-based; conditions: in vivo, 120 h, time 5 day
# B16-F10 [9] = assay: Antitumor activity against mouse B16-F10 cells bearing C57BL/6 mouse assessed as reduction in mitotic figures at 40 mg/kg, ip administered once daily for consecutive 5 days by H and E staining microscopic analysis; type: functional, organism-based; conditions: time 5.0 day
# B16-F10 [10] = assay: Antitumor activity against mouse B16-F10 cells bearing C57BL/6 mouse assessed as reduction in number of mitotic figures at 20 mg/kg, po administered once daily for consecutive 5 days in presence of cisplatin by H and E staining microscopic analysis; type: functional, organism-based; conditions: time 5.0 day
# [11] = Genotoxicity in C57BL/6 mouse xenografted with mouse B16-F10 cells assessed as ratio of polychromatic erythrocytes to total erythrocytes in bone marrow cells at 20 mg/kg, ip for consecutive 5 days (reference value: 0.91+/-0.01); type: toxicity, organism-based; conditions: in vivo, 120 h, time 5 day
# B16-F10 [12] = assay: Antitumor activity against mouse B16-F10 cells bearing C57BL/6 mouse assessed as reduction in tumor weight at 40 mg/kg, ip administered once daily for consecutive 5 days relative to control (reference value: 71.1%); type: functional; set-up: scale not given: the % may be the effect or the level left; conditions: time 5 day
# B16-F10 [13] = assay: Antitumor activity against mouse B16-F10 cells bearing C57BL/6 mouse assessed as reduction in tumor weight at 20 mg/kg, ip administered once daily for consecutive 5 days relative to control (reference value: 71.1%); type: functional; set-up: scale not given: the % may be the effect or the level left; conditions: time 5 day
# [14] = Toxicity in C57BL/6 mouse xenografted with mouse B16-F10 cells assessed as body weight loss at 20 mg/kg, po administered once daily for consecutive 5 days in presence of cisplatin relative to control; type: organism-based; conditions: in vivo, 120 h, time 5 day
# [15] = Genotoxicity in C57BL/6 mouse xenografted with mouse B16-F10 cells assessed as ratio of polychromatic erythrocytes to total erythrocytes in bone marrow cells at 20 mg/kg, sc for consecutive 5 days (reference value: 0.60 +/-0.01); type: toxicity, organism-based; conditions: in vivo, 120 h, time 5 day
# [16] = Toxicity in C57BL/6 mouse xenografted with mouse B16-F10 cells assessed as change in heart weight at 20 to 40 mg/kg, po administered once daily for consecutive 5 days relative to control; type: organism-based; conditions: in vivo, 120 h, dose 20-40 mg/kg, time 5 day
# [17] = Genotoxicity in C57BL/6 mouse xenografted with mouse B16-F10 cells assessed as micronucleated polychromatic erythrocytes frequency in bone marrow cells at 40 mg/kg, po for consecutive 5 days (reference value: 6.00 +/-1.00); type: toxicity, organism-based; conditions: in vivo, 120 h, time 5 day
# [18] = Toxicity in C57BL/6 mouse xenografted with mouse B16-F10 cells assessed as splenomegaly at 40 mg/kg, po administered once daily for consecutive 5 days; type: organism-based; conditions: in vivo, 120 h, time 5 day
# [19] = Toxicity in C57BL/6 mouse xenografted with mouse B16-F10 cells assessed as change in kidney weight at 20 to 40 mg/kg, po administered once daily for consecutive 5 days relative to control; type: organism-based; conditions: in vivo, 120 h, dose 20-40 mg/kg, time 5 day
# [20] = Genotoxicity in C57BL/6 mouse xenografted with mouse B16-F10 cells assessed as micronucleated polychromatic erythrocytes frequency in bone marrow cells at 20 mg/kg, sc for consecutive 5 days (reference value: 10.00 +/-2.00); type: toxicity, organism-based; conditions: in vivo, 120 h, time 5 day
# [21] = Genotoxicity in C57BL/6 mouse xenografted with mouse B16-F10 cells assessed as ratio of polychromatic erythrocytes to total erythrocytes in bone marrow cells at 40 mg/kg, ip for consecutive 5 days (reference value: 0.91+/-0.01); type: toxicity, organism-based; conditions: in vivo, 120 h, time 5 day
# [22] = Toxicity in C57BL/6 mouse xenografted with mouse B16-F10 cells assessed as change in lung weight at 20 to 40 mg/kg, ip administered once daily for consecutive 5 days relative to control; type: organism-based; conditions: in vivo, 120 h, dose 20-40 mg/kg, time 5 day
# B16-F10 [23] = assay: Antitumor activity against mouse B16-F10 cells bearing C57BL/6 mouse assessed as reduction in tumor weight at 40 mg/kg, po administered once daily for consecutive 5 days relative to control; type: functional; set-up: scale not given: the % may be the effect or the level left; conditions: time 5 day
# [24] = Genotoxicity in C57BL/6 mouse xenografted with mouse B16-F10 cells assessed as micronucleated polychromatic erythrocytes frequency in bone marrow cells at 40 mg/kg, sc for consecutive 5 days (reference value: 10.00 +/-2.00); type: toxicity, organism-based; conditions: in vivo, 120 h, time 5 day
# [25] = Toxicity in C57BL/6 mouse xenografted with mouse B16-F10 cells assessed as change in body weight at 20 to 40 mg/kg, ip administered once daily for consecutive 5 days; type: organism-based; conditions: in vivo, 120 h, dose 20-40 mg/kg, time 5 day
# B16-F10 [26] = assay: Antitumor activity against mouse B16-F10 cells bearing C57BL/6 mouse assessed as reduction in tumor weight at 20 mg/kg, po administered once daily for consecutive 5 days relative to control; type: functional; set-up: scale not given: the % may be the effect or the level left; conditions: time 5 day
# [27] = Genotoxicity in C57BL/6 mouse xenografted with mouse B16-F10 cells assessed as micronucleated polychromatic erythrocytes frequency in bone marrow cells at 20 mg/kg, ip for consecutive 5 days (reference value: 8.00); type: toxicity, organism-based; conditions: in vivo, 120 h, time 5 day
# [28] = Toxicity in C57BL/6 mouse xenografted with mouse B16-F10 cells assessed as reduction in spleen weight at 20 mg/kg, ip administered once daily for consecutive 5 days; type: organism-based; conditions: in vivo, 120 h, time 5 day
# [29] = Genotoxicity in C57BL/6 mouse xenografted with mouse B16-F10 cells assessed as ratio of polychromatic erythrocytes to total erythrocytes in bone marrow cells at 20 mg/kg, po for consecutive 5 days (reference value: 0.90 +/-0.04); type: toxicity, organism-based; conditions: in vivo, 120 h, time 5 day
# [30] = Genotoxicity in C57BL/6 mouse xenografted with mouse B16-F10 cells assessed as ratio of polychromatic erythrocytes to total erythrocytes in bone marrow cells at 40 mg/kg, po for consecutive 5 days (reference value: 0.90 +/-0.04); type: toxicity, organism-based; conditions: in vivo, 120 h, time 5 day
# [31] = Toxicity in C57BL/6 mouse xenografted with mouse B16-F10 cells assessed as splenomegaly at 20 mg/kg, ip administered once daily for consecutive 5 days; type: organism-based; conditions: in vivo, 120 h, time 5 day
# [32] = Toxicity in C57BL/6 mouse xenografted with mouse B16-F10 cells assessed as splenomegaly at 40 mg/kg, sc administered once daily for consecutive 5 days; type: organism-based; conditions: in vivo, 120 h, time 5 day
# [33] = Toxicity in C57BL/6 mouse xenografted with mouse B16-F10 cells assessed as change in kidney weight at 20 to 40 mg/kg, ip administered once daily for consecutive 5 days relative to control; type: organism-based; conditions: in vivo, 120 h, dose 20-40 mg/kg, time 5 day
# [34] = Genotoxicity in C57BL/6 mouse xenografted with mouse B16-F10 cells assessed as ratio of polychromatic erythrocytes to total erythrocytes in bone marrow cells at 40 mg/kg, sc for consecutive 5 days (reference value: 0.60 +/-0.01); type: toxicity, organism-based; conditions: in vivo, 120 h, time 5 day
# [35] = Toxicity in C57BL/6 mouse xenografted with mouse B16-F10 cells assessed as reduction in spleen weight at 20 mg/kg, sc administered once daily for consecutive 5 days; type: organism-based; conditions: in vivo, 120 h, time 5 day
# [36] = Toxicity in C57BL/6 mouse xenografted with mouse B16-F10 cells assessed as change in lung weight at 20 to 40 mg/kg, po administered once daily for consecutive 5 days relative to control; type: organism-based; conditions: in vivo, 120 h, dose 20-40 mg/kg, time 5 day
# [37] = Toxicity in C57BL/6 mouse xenografted with mouse B16-F10 cells assessed as change in heart weight at 20 to 40 mg/kg, sc administered once daily for consecutive 5 days relative to control; type: organism-based; conditions: in vivo, 120 h, dose 20-40 mg/kg, time 5 day
# B16-F10 [38] = assay: Antitumor activity against mouse B16-F10 cells bearing C57BL/6 mouse assessed as reduction in tumor weight at 20 mg/kg, sc administered once daily for consecutive 5 days relative to control (reference value: 50.7%); type: functional; set-up: scale not given: the % may be the effect or the level left; conditions: time 5 day
# B16-F10 [39] = assay: Antitumor activity against mouse B16-F10 cells bearing C57BL/6 mouse assessed as reduction in tumor weight at 20 mg/kg, po administered once daily for consecutive 5 days in presence of cisplatin relative to control; type: functional; set-up: scale not given: the % may be the effect or the level left; conditions: time 5 day
# [40] = Toxicity in C57BL/6 mouse xenografted with mouse B16-F10 cells assessed as change in lung weight at 20 to 40 mg/kg, sc administered once daily for consecutive 5 days relative to control; type: organism-based; conditions: in vivo, 120 h, dose 20-40 mg/kg, time 5 day
smiles,measurement,setting,value
C=C[C@](C)(O)CC[C@H]1C(=C)CC[C@H]2C(C)(C)CCC[C@]12C,Activity,[1],8
same,Activity,[2],Non-Toxic
same,Activity,[3],Non-Toxic
same,Activity,[4],Non-Toxic
same,Activity,[5],Toxic
same,Activity,[6],Non-Toxic
same,Activity,[7],4.33
same,Activity,[8],Non-Toxic
same,Activity,B16-F10 [9],Active
same,Activity,B16-F10 [10],Active
same,Ratio,[11],0.82
same,Activity,B16-F10 [12],64.9%
same,Activity,B16-F10 [13],48.5%
same,Activity,[14],Toxic
same,Ratio,[15],0.85
same,Activity,[16],Non-Toxic
same,Activity,[17],6
same,Activity,[18],Toxic
same,Activity,[19],Non-Toxic
same,Activity,[20],6
same,Ratio,[21],0.83
same,Activity,[22],Non-Toxic
same,Activity,B16-F10 [23],9.3%
same,Activity,[24],7.33
same,Activity,[25],Non-Toxic
same,Activity,B16-F10 [26],62.4%
same,Activity,[27],5.67
same,Activity,[28],Toxic
same,Ratio,[29],0.92
same,Ratio,[30],0.9
same,Activity,[31],Toxic
same,Activity,[32],Toxic
same,Activity,[33],Non-Toxic
same,Ratio,[34],0.85
same,Activity,[35],Non-Toxic
same,Activity,[36],Non-Toxic
same,Activity,[37],Non-Toxic
same,Activity,B16-F10 [38],38.8%
same,Activity,B16-F10 [39],86.7%
same,Activity,[40],Non-Toxic
